Structures are written as SMILES. ± gives the expanded uncertainty stated by the source.

A short description of series [1]: Molar enthalpy of transition or fusion. The following applies: Crystal; DSC.
For series [2] the following is noted: Crystal; DTA.

`C[C@]12CCC(=O)C=C1CC[C@@H]1[C@@H]2[C@@H](O)C[C@@]2(C)[C@H]1CC[C@]2(O)C(=O)CO` [11β,17α,21-trihydroxypregn-4-ene-3,20-dione]: the “Molar enthalpy of transition or fusion” value in series [1] amounted to 9.15 ± 0.311 kcal/mol. Also, in series [2], the Normal melting temperature amounted to 221.60 ± 1.1 °C.

For the origin of these results see the NIST ThermoML archive (doi:10.1016/j.fluid.2017.09.007).
